The term IC50 denotes the concentration that gives 50% inhibition.

IC50 data for 22 compounds are collected here from US20260015337A1 (Trawsfynydd Therapeutics, Inc., priority 2022, published 2026).

A value given as a limit tells only on which side of the number the result lay.

The target of one assay is 3CL Protease (Severe acute respiratory syndrome coronavirus 2, UniProt P0DTD1). Put plainly: 3CL Protease enzymatic activity assay (BPS Bioscience Assay Kit #78043-1, fluorescence). It is filed as biochemical, SARS-CoV-2. Particulars: Table A; 30 min preincubation, 40 μM substrate, 4 hours at room temperature; read-out: IC50, nM (3CL Protease enzymatic activity). The procedure, abridged:
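SARS-CoV-2 3CL protease was preincubated with compound 30 min at room temperature in assay buffer with 1 mM DTT (≤1% DMSO), then 40 μM substrate added for 4 h at room temperature. Fluorescence at 360/460 nm, blank-subtracted; IC50 from % inhibition, with GC376 as inhibitor control.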
Consider `CC(C)(C)[C@H](NC(=O)C(F)(F)F)C(=O)N1C[C@H]2[C@@H]([C@H]1C(=O)N[C@H](C#N)Cc1cc3cc(F)c(F)cc3[nH]c1=O)C2(C)C` [Compound 177, (1R,2S,5S)—N—((S)-1-Cyano-2-(6,7-difluoro-2-oxo-1,2-dihydroquinolin-3-yl)ethyl)-3-((S)-3,3-dimethyl-2-(2,2,2-trifluoroacetamido)butanoyl)-6,6-dimethyl-3-azabicyclo[3.1.0]hexane-2-carboxamide], for which the concentration for half-maximal inhibition (IC50) was 50 to 100 nM.

For the compound `Cc1ccc2[nH]c(=O)c(C[C@@H](C#N)NC(=O)[C@@H]3[C@@H]4[C@H](CN3C(=O)[C@@H](NC(=O)C(F)(F)F)C(C)(C)C)C4(C)C)c(C)c2c1` [Compound 178, (1R,2S,5S)—N—((S)-1-Cyano-2-(4,6-dimethyl-2-oxo-1,2-dihydroquinolin-3-yl)-ethyl)-3-((S)-3,3-dimethyl-2-(2,2,2-trifluoroacetamido)butanoyl)-6,6-dimethyl-3-azabicyclo[3.1.0]hexane-2-carboxamide], the IC50 was 100 to 250 nM. The same measure, in the same setting: the figure for `COc1cc2cc(C[C@@H](C#N)NC(=O)[C@@H]3[C@@H]4[C@H](CN3C(=O)[C@@H](NC(=O)C(F)(F)F)C(C)(C)C)C4(C)C)c(=O)[nH]c2cc1C` [Compound 179] is 50 to 100 nM; for `CC(C)(C)[C@H](NC(=O)C(F)(F)F)C(=O)N1C[C@H]2[C@@H]([C@H]1C(=O)NC(C#N)Cc1cc3ccccc3[nH]c1=O)C2(C)C` (stereo partly drawn) [Compound 182, (1R,2S,5S)-N-[1-cyano-2-(2-oxo-1H-quinolin-3-yl)ethyl]-3-[(2S)-3,3-dimethyl-2-[(2,2,2-trifluoroacetyl)amino]butanoyl]-6,6-dimethyl-3-azabicyclo[3.1.0]hexane-2-carboxamide] it is < 50 nM.

`Cc1ccc2[nH]c(=O)c(C[C@@H](C#N)N(C)C(=O)[C@@H]3[C@@H]4[C@H](CN3C(=O)[C@@H](NC(=O)C(F)(F)F)C(C)(C)C)C4(C)C)cc2c1` [Compound 183, (1R,2S,5S)-N-[(1S)-1-cyano-2-(6-methyl-2-oxo-1H-quinolin-3-yl)ethyl]-3-[(2S)-3,3-dimethyl-2-[(2,2,2-trifluoroacetyl)amino]butanoyl]-N,6,6-trimethyl-3-azabicyclo[3.1.0]hexane-2-carboxamide]: the IC50 was ≥ 1000 nM. Same read-out and setting: the figure for `CC(C)(C)[C@H](NC(=O)C(F)(F)F)C(=O)N1C[C@H]2[C@@H]([C@H]1C(=O)N[C@H](C#N)Cc1nc3ccccc3[nH]c1=O)C2(C)C` [Compound 185, (1R,2S,5S)—N-[(1S)-1-Cyano-2-(3-oxo-4H-quinoxalin-2-yl)ethyl]-3-[(2S)-3,3-dimethyl-2-[(2,2,2-trifluoroacetyl)amino]butanoyl]-6,6-dimethyl-3-azabicyclo[3.1.0]hexane-2-carboxamide] is < 50 nM; for `CC(C)(C)[C@H](NC(=O)C(F)(F)F)C(=O)N1C[C@H]2[C@@H]([C@H]1C(=O)N[C@@H](C#N)Cc1nc3ccccc3[nH]c1=O)C2(C)C` [Compound 186, (1R,2S,5S)—N-[(1R)-1-cyano-2-(3-oxo-4H-quinoxalin-2-yl)ethyl]-3-[(2S)-3,3-dimethyl-2-[(2,2,2-trifluoroacetyl)amino]butanoyl]-6,6-dimethyl-3-azabicyclo[3.1.0]hexane-2-carboxamide] it is < 50 nM; for `CN1c2ccccc2NC(=O)C1CC(C#N)NC(=O)[C@@H]1[C@@H]2[C@H](CN1C(=O)[C@@H](NC(=O)C(F)(F)F)C(C)(C)C)C2(C)C` (stereo partly drawn) [Compound 187, (1R,2S,5S)—N-[1-Cyano-2-(1-methyl-3-oxo-2,4-dihydroquinoxalin-2-yl)ethyl]-3-[(2S)-3,3-dimethyl-2-[(2,2,2-trifluoroacetyl)amino]butanoyl]-6,6-dimethyl-3-azabicyclo[3.1.0]hexane-2-carboxamide] it is ≥ 1000 nM.

Regarding `CC(C)(C)[C@H](NS(C)(=O)=O)C(=O)N1C[C@H]2[C@@H]([C@H]1C(=O)N[C@H](C#N)Cc1cc3cnccc3[nH]c1=O)C2(C)C` [Compound 188, (1R,2S,5S)—N—((S)-1-Cyano-2-(2-oxo-1,2-dihydro-1,6-naphthyridin-3-yl)ethyl)-3-((S)-3,3-dimethyl-2-(methylsulfonamido)butanoyl)-6,6-dimethyl-3-azabicyclo[3.1.0]hexane-2-carboxamide], the half-maximal inhibitory concentration (IC50) was < 50 nM.

Turning to `CC(C)(C)[C@H](NS(C)(=O)=O)C(=O)N1C[C@H]2[C@@H]([C@H]1C(=O)N[C@@H](C#N)Cc1cc3cnccc3[nH]c1=O)C2(C)C` [Compound 189, (1R,2S,5S)—N—((R)-1-Cyano-2-(2-oxo-1,2-dihydro-1,6-naphthyridin-3-yl)ethyl)-3-((S)-3,3-dimethyl-2-(methylsulfonamido)butanoyl)-6,6-dimethyl-3-azabicyclo[3.1.0]hexane-2-carboxamide], the IC50 is ≥ 1000 nM. Same read-out and setting: the figure for `Cc1ccc2[nH]c(=O)c(C[C@@H](C#N)NC(=O)[C@@H]3[C@@H]4[C@H](CN3C(=O)Cc3cc(C(F)(F)F)n[nH]3)C4(C)C)cc2c1` [Compound 191, (1R,2S,5S)—N—((S)-1-Cyano-2-(6-methyl-2-oxo-1,2-dihydroquinolin-3-yl)ethyl)-6,6-dimethyl-3-(2-(3-(trifluoromethyl)-1H-pyrazol-5-yl)acetyl)-3-azabicyclo[3.1.0]hexane-2-carboxamide] is ≥ 1000 nM; for `Cc1ccc2[nH]c(=O)c(C[C@@H](C#N)NC(=O)[C@@H]3[C@@H]4[C@H](CN3C(=O)Cc3cc(C)no3)C4(C)C)cc2c1` [Compound 192, (1R,2S,5S)—N—((S)-1-Cyano-2-(6-methyl-2-oxo-1,2-dihydroquinolin-3-yl)ethyl)-6,6-dimethyl-3-(2-(3-methylisoxazol-5-yl)acetyl)-3-azabicyclo[3.1.0]hexane-2-carboxamide] it is ≥ 1000 nM. Turning to `Cc1ccc2[nH]c(=O)c(C[C@@H](C#N)NC(=O)[C@@H]3[C@@H]4[C@H](CN3C(=O)Cc3cc(C(F)(F)F)no3)C4(C)C)cc2c1` [Compound 193, (1R,2S,5S)—N—((S)-1-Cyano-2-(6-methyl-2-oxo-1,2-dihydroquinolin-3-yl)ethyl)-6,6-dimethyl-3-(2-(3-(trifluoromethyl)isoxazol-5-yl)acetyl)-3-azabicyclo[3.1.0]hexane-2-carboxamide], the IC50 was ≥ 1000 nM. As for `Cc1ccc2[nH]c(=O)c(C[C@@H](C#N)NC(=O)[C@@H]3[C@@H]4[C@H](CN3C(=O)C(C)c3cc(C(F)(F)F)n[nH]3)C4(C)C)cc2c1` (stereo partly shown) [Compound 194], the IC50 is ≥ 1000 nM. The same measure, in the same setting: the figure for `Cc1ccc2[nH]c(=O)c(C[C@@H](C#N)NC(=O)[C@@H]3[C@@H]4[C@H](CN3C(=O)[C@@H](NS(=O)(=O)CC(F)(F)F)C(C)(C)C)C4(C)C)cc2c1` [Compound 195, (1R,2S,5S)—N—((S)-1-Cyano-2-(6-methyl-2-oxo-1,2-dihydroquinolin-3-yl)ethyl)-3-((S)-3,3-dimethyl-2-((2,2,2-trifluoroethyl)sulfonamido)butanoyl)-6,6-dimethyl-3-azabicyclo[3.1.0]hexane-2-carboxamide] is < 50 nM; for `COc1cccc2oc(C(=O)N3C[C@H]4[C@@H]([C@H]3C(=O)N[C@H](C#N)Cc3cc5cc(C)ccc5[nH]c3=O)C4(C)C)cc12` [Compound 196, (1R,2S,5S)—N—((S)-1-Cyano-2-(6-methyl-2-oxo-1,2-dihydroquinolin-3-yl)ethyl)-3-(4-methoxybenzofuran-2-carbonyl)-6,6-dimethyl-3-azabicyclo[3.1.0]hexane-2-carboxamide] it is ≥ 1000 nM; for `Cc1ccc2[nH]c(=O)c(C[C@@H](C#N)NC(=O)C3C[C@H]4OCC[C@H]4N3C(=O)[C@@H](NC(=O)OCc3ccccc3)C(C)(C)C)cc2c1` (stereo partly drawn) [Compound 197, Benzyl ((2S)-1-((3aR,6aR)-5-(((S)-1-cyano-2-(6-methyl-2-oxo-1,2-dihydroquinolin-3-yl)ethyl)carbamoyl)hexahydro-4H-furo[3,2-b]pyrrol-4-yl)-3,3-dimethyl-1-oxobutan-2-yl)carbamate] it is ≥ 1000 nM. With `Cc1ccc2[nH]c(=O)c(C[C@@H](C#N)NC(=O)C3C[C@H]4OCC[C@H]4N3C(=O)[C@@H](NC(=O)C(F)(F)F)C(C)(C)C)cc2c1` (stereo partly drawn) [Compound 198, (3aR,6aR)—N—((S)-1-Cyano-2-(6-methyl-2-oxo-1,2-dihydroquinolin-3-yl)ethyl)-4-((S)-3,3-dimethyl-2-(2,2,2-trifluoroacetamido)butanoyl)hexahydro-2H-furo[3,2-b]pyrrole-5-carboxamide], the half-inhibitory concentration (IC50) is ≥ 1000 nM. Consider `Cc1ccc2c(c1)CC(CC(C#N)NC(=O)[C@@H]1[C@@H]3[C@H](CN1C(=O)[C@@H](NC(=O)C(F)(F)F)C(C)(C)C)C3(C)C)C(=O)N2` (stereo partly drawn) [Compound 199, (1R,2S,5S)—N-[1-Cyano-2-(6-methyl-2-oxo-3,4-dihydro-1H-quinolin-3-yl)ethyl]-3-[(2S)-3,3-dimethyl-2-[(2,2,2-trifluoroacetyl)amino]butanoyl]-6,6-dimethyl-3-azabicyclo[3.1.0]hexane-2-carboxamide], for which the IC50 is < 50 nM. The same measure, in the same setting: next, `Cc1ccc2[nH]c(=O)c(CC(C#N)N(C)C(=O)[C@@H]3[C@H]4[C@H](CN3C(=O)[C@@H](NC(=O)C(F)(F)F)C(C)(C)C)C4(C)C)cc2c1` (stereo partly drawn) [Compound 205, (1S,2S,5S)-N-[1-cyano-2-(6-methyl-2-oxo-1H-quinolin-3-yl)ethyl]-3-[(2S)-3,3-dimethyl-2-[(2,2,2-trifluoroacetyl)amino]butanoyl]-N,6,6-trimethyl-3-azabicyclo[3.1.0]hexane-2-carboxamide]: ≥ 1000 nM.

Regarding `Cc1ccc2[nH]c(=O)c(C[C@@H](C#N)NC(=O)[C@H](Cc3ccccc3)N(C)C(=O)[C@@H](NC(=O)C(F)(F)F)C(C)(C)C)cc2c1` [Compound 206, (2S)—N-[(1S)-1-benzyl-2-[[(1S)-1-cyano-2-(6-methyl-2-oxo-1H-quinolin-3-yl)ethyl]amino]-2-oxo-ethyl]-N,3,3-trimethyl-2-[(2,2,2-trifluoroacetyl)amino]butanamide], the IC50 was ≥ 1000 nM.

Staying with this assay, now noted: Table B; comparison with known compound K; read-out: IC50, nM (3CL Protease enzymatic activity, comparative data).
Turning to `CC(C)(C)[C@H](NC(=O)C(F)(F)F)C(=O)N1C[C@H]2[C@@H]([C@H]1C(=O)N[C@H](C#N)C[C@@H]1CCCNC1=O)C2(C)C` [K, reference compound], the 50% inhibitory concentration (IC50) was 1290 nM.
